The numbers were not newly measured in US8569273B2, “Ophthalmic formulations of cetirizine and methods of use” (Aciex Therapeutics, Inc., priority 2009, dated 2013), which cites them from elsewhere.

The conditions of the data set: ophthalmic antihistamine.

As to `O=C(O)CCCN1CCC(O[C@@H](c2ccc(Cl)cc2)c2ccccn2)CC1` [bepotastine], the duration of action was 8 h.

On to `C[C@@H]1CN([C@H]2CC[C@](C#N)(c3ccc(F)cc3)CC2)CC[C@]1(C(=O)O)c1ccccc1` [levocabastine], for which the duration of action was 2 to 4 h.
